Values quoted from earlier work as cited in patent publication US9849145B2, “Pharmaceutical composition containing honeysuckle extract and antibiotics, pharmaceutical kit, and use of honeysuckle extract for preparation of drug” (priority 2011, dated 2017).

Assays:
Parameters in all cases: key: Resistant; Sensitive; Intermediate degree (moderate resistance)
[1] = tested on: Staphylococcus aureus; conditions: clinical isolate, specimen Y31692, secretion; cited from earlier work
[2] = tested on: Klebsiella pneumoniae; conditions: clinical isolate, specimen 31494, sputum; cited from earlier work
[3] = tested on: Pseudomona aeruginosa; conditions: clinical isolate, specimen 12; cited from earlier work
[4] = tested on: Klebsiella pneumoniae; conditions: clinical isolate, specimen 31853, urine; cited from earlier work
[5] = tested on: Escherichia coli; conditions: clinical isolate, specimen 32042, urine; cited from earlier work

| Molecule | resistance of Staphylococcus aureus to the antibiotic [1] | drug resistant spectrum of the experimental strain of Klebsiella pneumoniae [2] | resistance of Pseudomona aeruginosa to the antibiotic [3] | resistance of Klebsiella pneumoniae to the antibiotic [4] | resistance of Escherichia coli to the antibiotic [5] |
| --- | --- | --- | --- | --- | --- |
| NCC[C@H](O)C(=O)N[C@@H]1C[C@H](N)[C@@H](O[C@H]2O[C@H](CN)[C@@H](O)[C@H](O)[C@H]2O)[C@H](O)[C@H]1O[C@H]1O[C@H](CO)[C@@H](O)[C@H](N)[C@H]1O [AMK, amikacin] | S | S | S | S | S |
| C[C@H]1[C@H](NC(=O)/C(=N\OC(C)(C)C(=O)O)c2csc(N)n2)C(=O)N1S(=O)(=O)O [ATM, aztreonam] |  |  | S |  |  |
| CC(C)(O/N=C(\C(=O)N[C@@H]1C(=O)N2C(C(=O)[O-])=C(C[n+]3ccccc3)CS[C@H]12)c1csc(N)n1)C(=O)O [CAZ, ceftazidime] |  | S | S | S | R |
| CCN1CCN(C(=O)N[C@@H](C(=O)N[C@@H]2C(=O)N3C(C(=O)O)=C(CSc4nnnn4C)CS[C@H]23)c2ccc(O)cc2)C(=O)C1=O [CFP, cefoperazone] |  |  | S |  |  |
| O=C(N[C@H](CO)[C@H](O)c1ccc([N+](=O)[O-])cc1)C(Cl)Cl [CHL, chloramphenicol] |  | R |  | I | S |
| CO/N=C(\C(=O)N[C@@H]1C(=O)N2C(C(=O)O)=C(CSc3nc(=O)c(=O)[nH]n3C)CS[C@H]12)c1csc(N)n1 [CRO, ceftriaxone] |  | R | R | S | R |
| CO/N=C(\C(=O)N[C@@H]1C(=O)N2C(C(=O)O)=C(COC(C)=O)CS[C@H]12)c1csc(N)n1 [CTX, cefotaxime] |  | R | S | S | R |
| CO/N=C(\C(=O)N[C@@H]1C(=O)N2C(C(=O)O)=C(COC(N)=O)CS[C@H]12)c1ccco1 [CXM, cefuroxime] |  | R | R | S | R |
| Cc1nnc(SCC2=C(C(=O)O)N3C(=O)[C@@H](NC(=O)Cn4cnnn4)[C@H]3SC2)s1 [CZO, cefazolin] |  | R |  | S | R |
| CC[C@H]1OC(=O)[C@H](C)[C@@H](O[C@H]2C[C@@](C)(OC)[C@@H](O)[C@H](C)O2)[C@H](C)[C@@H](O[C@@H]2O[C@H](C)C[C@H](N(C)C)[C@H]2O)[C@](C)(O)C[C@@H](C)C(=O)[C@H](C)[C@@H](O)[C@]1(C)O [ERY, erythromycin] | R |  |  |  |  |
| CO/N=C(\C(=O)N[C@@H]1C(=O)N2C(C(=O)[O-])=C(C[N+]3(C)CCCC3)CS[C@H]12)c1csc(N)n1 [FEP, cefepime] |  | S | S | S | R |
| CO[C@@]1(NC(=O)Cc2cccs2)C(=O)N2C(C(=O)O)=C(COC(N)=O)CS[C@@H]21 [FOX, cefoxitin] | S | S |  | S | R |
| C[C@H]1COc2c(N3CCN(C)CC3)c(F)cc3c(=O)c(C(=O)O)cn1c23 [LEV, left-handed oxygen fluorine] |  |  | S |  |  |
| CCn1cc(C(=O)O)c(=O)c2cc(F)c(N3CCNCC3)cc21 [NOR, norfloxacin] |  |  | S |  |  |
| Cc1onc(-c2ccccc2)c1C(=O)N[C@@H]1C(=O)N2[C@@H]1SC(C)(C)[C@@H]2C(=O)O [OXA, oxacillin] | S |  |  |  |  |
| CCN1CCN(C(=O)N[C@@H](C(=O)N[C@@H]2C(=O)N3[C@@H]2SC(C)(C)[C@@H]3C(=O)O)c2ccccc2)C(=O)C1=O [PIP, piperacillin] |  | R | S | I | R |
| CO[C@H]1/C=C/O[C@@]2(C)Oc3c(C)c(O)c4c(O)c(c(/C=N/N5CCN(C)CC5)c(O)c4c3C2=O)NC(=O)/C(C)=C\C=C\[C@H](C)[C@H](O)[C@@H](C)[C@@H](O)[C@@H](C)[C@H](OC(C)=O)[C@@H]1C [RIF, rifampin] | S |  |  |  |  |
| NC[C@H]1O[C@H](O[C@H]2[C@H](O)[C@@H](O[C@H]3O[C@H](CO)[C@@H](O)[C@H](N)[C@H]3O)[C@H](N)C[C@@H]2N)[C@H](N)C[C@@H]1O [TOB, tobramycin] |  |  | S |  |  |
| CN[C@H](CC(C)C)C(=O)N[C@H]1C(=O)N[C@@H](CC(N)=O)C(=O)N[C@H]2C(=O)N[C@H]3C(=O)N[C@H](C(=O)N[C@H](C(=O)O)c4cc(O)cc(O)c4-c4cc3ccc4O)[C@H](O)c3ccc(c(Cl)c3)Oc3cc2cc(c3O[C@@H]2O[C@H](CO)[C@@H](O)[C@H](O)[C@H]2O[C@H]2C[C@](C)(N)[C@H](O)[C@H](C)O2)Oc2ccc(cc2Cl)[C@H]1O [VAN, vancomycin] | S |  |  |  |  |
| amoxicillin/clavulanic acid [AMC] |  | I |  | S | I |
| ampicillin/sulbactam [SAM] | S |  | R |  |  |
| gentamicin | S | R | S | S | R |
| penicillin [PNE] | R |  |  |  |  |
| piperacillin/tazobactam [TZP] |  | I | S | S | I |
| sulperazon [CLS] |  |  | S |  |  |
| ticarcillin/clavulanic acid [TIM] |  |  | S |  |  |
| trimethoprim-sulfamethoxazole [SXT] | S | R |  | R | R |
